Consider 6 molecules from US7838045B2, “Anti-inflammatory activity of phenethylisothiocyanate (PEITC) and the Barbarea verna seed preparation containing this compound” (priority 2005, dated 2010).

What all share (format): cell-based, mouse
In one experiment the test system is COX2. In words: qPCR gene expression in LPS-stimulated RAW264.7 macrophages, COX2. Particulars: for COX2 % down-regulation: 8 hour treatment. Here is the method: (§1) The mouse monocyte/macrophage cell line RAW 264.7 (obtained from American Type Culture Collection, ATCC, VA USA) was maintained in Dulbecco's Modified Eagle Medium (DMEM) (Invitrogen Inc) supplemented with 100 U/ml penicillin, 100 μg/ml streptomycin, and 10% heat-inactivated fetal calf serum. All incubations were at 37° C. in a 5% CO2 in internal air atmosphere, within the growth chamber.
Cells were seeded at a density of 0.4×10^6 cells per well (viable cell counts performed with a hemocytometer), in 24 well plates 12 hours prior to treatment. The cells were then treated with test compounds at required concentrations (pre-determined doses) for 2 hours before elicitation with LPS at 1 μg/ml for an additional 6 hours. For every experiment one positive control (cells treated only with LPS) and one negative control (cells without any treatment) were included. For treatments and the controls, two replicates were made in each case. At the end, cells were harvested in Trizol reagent (Invitrogen Inc) for subsequent cellular RNA extraction. […] Cell viability was measured by MTT assay (Mosmann (1983) J. Immunol. Methods 65:55-63).
(§2) Total RNA was extracted from RAW macrophages using Trizol reagent (Invitrogen Inc.) following manufacturer instructions. RNA was quantified spectro-photometrically by absorption measurements at 260 nm and 280 nm using NanoDrop™ system (NanoDrop Technologies Inc. DE, USA). RNA was assessed qualitatively by gel-electrophoresis methods. RNA was then treated with DnaseI (Invitrogen Inc.) also following manufacturer guidelines, to remove any traces of DNA contamination. The cDNAs were synthesized using 3 μg of RNA for each sample using Stratascript™ Reverse Transcriptase, an RNA dependent DNA polymerase (Stratagene, La Jolla, Calif.), following manufacturer protocol. Utmost care was taken to minimize any quantification inaccuracy and pipetting error.
(§3) The synthesized cDNAs were diluted 4-fold. 2 μl of each of these diluted samples were used for PCR reactions of 25 μl final volume. The other components of the PCR reactions were 0.5 μl of 6 μM gene specific primers (oligos synthesized by IDT Inc. USA), 12.5 μl of Brilliant SYBR green PCR master mix (2×) (Stratagene, La Jolla, Calif.) containing green jump-start Taq ready mix. ROX (Stratagene, La Jolla, Calif.) was used as an internal dye. To avoid interference due to genomic DNA contamination, only intron-overlapping primers were selected using the software Primer Express™ (Applied Biosystem, Foster City, Calif.) as follows:
(§4) Forward and reverse pairs of the primers are indicated above as “F” and “R” respectively. PCR amplifications were performed on MX3000p system (Stratagene, La Jolla, Calif.) using 1 cycle at 50° C. for 2 min, 1 cycle of 95° C. for 10 minutes, followed by 40 cycles of 15 seconds at 95° C. and 1 min at 60° C. The dissociation curve was completed with one cycle of 1 minute at 95° C., 30 seconds of 55° C. and 30 seconds of 95° C. NRT (non-RT control) and NTC (no template control) were included in the PCR program as quality control steps.
(§5) RNA expressions for COX2, iNOS and IL1β, normalized with respect to the expression of housekeeping β-actin gene, were analyzed using the ΔΔCt method (software from Stratagene inc, USA) as described by Pfaffl (Pfaffl, 2001, Nucleic Acids Res 29(9):2002-2007). The ΔΔCt values obtained from these analyses were converted [(1−ΔΔCt)×100] to obtain percentage of inhibition (% inhibition or % downregulation) which reflected the anti-inflammatory properties of the test compounds (Table 2, 4). A value of 100% indicates complete inhibition of LPS-stimulated genetic up-regulation. 0% implies absence of any anti-inflammatory activity of the test compound.

The next experiment has as its system IL1β. In words: qPCR gene expression in LPS-stimulated RAW264.7 macrophages, IL1β. The note with it: for IL1β % down-regulation: 8 hour treatment. Here is the method:
as §1
(§6) Cells were seeded at a density of 0.4×10^6 cells per well (viable cell counts performed with a hemocytometer), in 24 well plates 12 hours prior to treatment. The cells were then treated with test compounds at required concentrations (pre-determined doses) for 2 hours before elicitation with LPS at 1 μg/ml for an additional 6 hours. For every experiment one positive control (cells treated only with LPS) and one negative control (cells without any treatment) were included. For treatments and the controls, two replicates were made in each case. At the end, cells were harvested in Trizol reagent (Invitrogen Inc) for subsequent cellular RNA extraction. The stock of BSP used for the assay was prepared by partially dissolving 50 mg/ml seed preparation in 95% ethyl alcohol for 15 minutes by sonication, where it released PEITC in the clear supernatant that was used for the cell treatment. Cell viability was measured by MTT assay (Mosmann (1983) J. Immunol. Methods 65:55-63).
as §2, §3, §4
as §5, with “compound. […]” for “compound.”
For orientation: Quantitative PCR measures a nucleic acid by following its amplification.

The test system of the next experiment is iNOS. The experiment is described as follows: qPCR gene expression in LPS-stimulated RAW264.7 macrophages, iNOS. The note with it: for iNOS % down-regulation: 8 hour treatment. As to the method:
as §1, §6, §2, §3, §4
as §5, with “compound. […]” for “compound.”

[1] abbreviates: Mus musculus, RAW264.7, pure compound.

Turning to `C=CCN=C=S` [Allyl], the COX2 % down-regulation result with COX2 (5 μM) is reported as “Up-regulation”. Moreover, the IL1β % down-regulation with IL1β (5 μM) is reported as 86%; in the experiment with IL1β (5 μM, listed as allyl) it was “equally active as PEITC”. Also, the iNOS % down-regulation in the experiment with iNOS (5 μM) is recorded as 76%; in the experiment on iNOS (5 μM, listed as allyl), “equally active as PEITC”.

Consider `CC(C)N=C=S` [Isopropyl], for which the COX2 % down-regulation result in the experiment with COX2 (5 μM) and in the experiment on COX2 (10 μM) was “Up-regulation” each time. Moreover, the IL1β % down-regulation with IL1β (5 μM) was 40%; in the experiment with IL1β (10 μM) it was 59%. The results for the iNOS % down-regulation in the experiment with iNOS (5 μM) and in the experiment on iNOS (10 μM) were 9% and 7%, respectively.

Broadly, the IC50 is the midpoint of a concentration-inhibition curve. `S=C=NCCc1ccccc1` [PEITC, phenethylisothiocyanate]: the COX2 % down-regulation in the experiment with COX2 (1 μM) is recorded as −73.5 ± 20.5%; with COX2 (5 μM), 19.0 ± 27.1%; with COX2 (10 μM), 28.3 ± 15.0%; in the experiment with COX2 (20 μM) it was 99.5 ± 0.7%; with COX2 (40 μM), 100.0 ± 0.0%; in the experiment on COX2 (80 μM) it was 100.0 ± 0.0%. For the same molecule, the IC50 with COX2 (setting [1]) stood at 17 µM; with IL1β (Mus musculus, RAW264.7, pure compound, read-out: IC50 in IL1 β-assay), 2 µM; with iNOS (setting [1]) it was 4 µM. The IL1β % down-regulation came out at 36.5 ± 9.2% in the experiment on IL1β (1 μM); 86.0 ± 9.8% in the experiment on IL1β (5 μM); 92.0 ± 10.4% with IL1β (10 μM); 100.0 ± 0.0% in the experiment on IL1β (20 μM); 100.0 ± 0.0% with IL1β (40 μM); 100.0 ± 0.0% with IL1β (80 μM). Moreover, the iNOS % down-regulation in the experiment with iNOS (1 μM) was 2.0 ± 7.1%; with iNOS (5 μM), 69.8 ± 21.1%; with iNOS (10 μM), 81.7 ± 5.5%; in the experiment with iNOS (20 μM), 99.5 ± 0.7%; in the experiment with iNOS (40 μM), 99.5 ± 0.7%; in the experiment with iNOS (80 μM), 99.5 ± 0.7%.

With `S=C=Nc1ccccc1` [Phenyl], the COX2 % down-regulation result with COX2 (5 μM) is on record as “Up-regulation”; in the experiment on COX2 (10 μM), 3%. The IL1β % down-regulation in the experiment with IL1β (5 μM) came out at 47%; in the experiment on IL1β (10 μM) it was 59%. Also, the values for the iNOS % down-regulation with iNOS (5 μM) and in the experiment on iNOS (10 μM) were 31% and 35%, respectively.

`CC(C)(C)N=C=S` [Tert-butyl]: the COX2 % down-regulation result in the experiment with COX2 (5 μM) and in the experiment on COX2 (10 μM) was “Up-regulation” throughout. In addition, the IL1β % down-regulation came out at 44% in the experiment with IL1β (5 μM) and 61% in the experiment with IL1β (10 μM). For the same molecule, the values for the iNOS % down-regulation with iNOS (5 μM) and with iNOS (10 μM) were 3% and 0%, respectively.

As to `CS(=O)(=O)c1ccc(C2=C(c3ccccc3)C(=O)OC2)cc1` [rofecoxib], the COX2 % down-regulation is recorded as −52% in the experiment with COX2 (1 μM), 8% in the experiment on COX2 (5 μM), 22% with COX2 (10 μM) and 25% with COX2 (20 μM). Also, the IL1β % down-regulation in the experiment on IL1β (1 μM) is 18%; in the experiment on IL1β (5 μM) it was 10%; in the experiment on IL1β (10 μM) it was 12%; in the experiment with IL1β (20 μM), 15%. The iNOS % down-regulation with iNOS (1 μM) came out at 35%; with iNOS (5 μM), 37%; with iNOS (10 μM) it was 68%; in the experiment on iNOS (20 μM) it was 45%.
